# Reference: patent US20250134792A1, “COMPOSITIONS AND METHODS FOR TREATING SKIN” (L'Oreal, priority 2023, published 2025)
# Assays:
# [1] = tested on: normal human epidermal keratinocytes (NHEK); test: Proliferation: KI67 staining of NHEKs; assay type: cell-based; conditions: proxylane 0.005%, 0.017%, 0.05%; niacinamide 0.0012%, 0.004%, 0.012%; alone or in combination; FIG. 3
# From the text: Surgical skin samples were taken from adults and subjected to the 0.25% trypsin dermis/epidermis separation method described in Rheinwald to obtain suspensions of normal human epidermal keratinocytes (NHEK) and dermal fibroblasts. […] The NHEK cell cultures were initiated using the 3T3 feeder-layer technique described in Rheinwald J. G., Green H.: Epidermal growth factor and the multiplication of cultured human epidermal keratinocytes.
# Keratinocytes were stained against KI67 and expression was quantified.
# [2] = tested on: Normal Human Epidermal Melanocytes-Dark Pigment; test: PGE-2 induced inflammation and melanin synthesis; assay type: cell-based; conditions: 30 nM PGE2 stimulated melanocytes; 10 mM (0.12%) niacinamide, proxylane (0.19%); 10 days; FIG. 10
# Method: Normal Human Epidermal Melanocytes-Dark Pigment (Lot 1981687, Passage 3, ThermoFisher, Waltham, MA) were seeded in 6-well plates at a density of 100,000 cells per well. Cells were grown in culture medium supplemented with Gibo Human Melanocyte Growth Supplement-2 (ThermoFisher, Waltham, MA). […] Following the 10 days, cells were trypsinized and the melanin was isolated using NaOH. A standard curve using commercially available melanin was used to calculate the average cellular melanin content using the recorded optical density of the isolated melanin using a microplate reader. Average cellular melanin content was normalized to total protein content.
# neutrophil elastase = molecular target: T1, neutrophil elastase (Homo sapiens, UniProt P08246); conditions: alone and in combination; 37° C., fluorescence slope over thirty minutes; FIG. 5
# T1 sequence (P08246 30-267): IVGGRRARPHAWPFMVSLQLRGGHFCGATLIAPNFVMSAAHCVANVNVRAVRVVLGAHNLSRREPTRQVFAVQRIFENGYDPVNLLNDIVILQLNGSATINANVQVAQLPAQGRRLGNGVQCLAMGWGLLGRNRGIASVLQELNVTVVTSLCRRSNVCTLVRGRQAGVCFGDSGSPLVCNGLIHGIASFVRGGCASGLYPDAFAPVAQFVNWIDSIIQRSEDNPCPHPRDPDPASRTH
smiles,measurement,setting,value
"NC(=O)c1cccnc1 [vitamin B3, niacinamide]",cell proliferation of keratinocytes (KI67 expression),[1],capable of stimulating
same,melanin production (average cellular melanin content normalized to total protein),[2],significantly decreases
same,elastase activity,neutrophil elastase,inhibit
